# Like-named read-outs stand apart in the source and are kept apart here.
# System: Human Jurkat T-cells (clone N)
# Assay: Jurkat T-cell activation (anti-TCR, CD69 upregulation)
# Assay type: cell-based
# Procedure, shortened: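 Jurkat cells in RPMI + 5% FBS preincubated with compound 1 h at 37 °C, then stimulated with anti-TCR C305 at 500 ng/ml for 20 h. CD69 surface expression stained with anti-CD69-APC and read by flow cytometry; IC50 versus solvent-only control.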
IC50,"IC50 (Homo sapiens, Jurkat)",SMILES,also measured
> 10 µM,,CCOC(=O)COc1cccc(Nc2nc(Nc3cc(OC)cc(OC)c3)ncc2F)c1 [Compound R926804],
> 10 µM,,COC(=O)COc1ccc(Nc2ncc(F)c(Nc3ccc(OCC(N)=O)cc3)n2)cc1 [Compound R945052],
,> 10 µM,CC(C)Oc1ccc(Nc2ncc(F)c(Nc3ccc(OC(C)C)cc3)n2)cc1 [Compound R926701],
,7.62 µM,Oc1ccc(Nc2ncc(F)c(Nc3ccc(O)cc3)n2)cc1 [Compound R926405],
3.65 µM,,CC(C)c1cccc(Nc2nc(Nc3cccc(OCCO)c3)ncc2F)c1 [Compound R940289],
> 10 µM,,CCOC(=O)COc1ccc(Nc2nc(Nc3ccc(OCC(=O)OCC)cc3)c(NC(=O)Nc3ccccc3)c(C(=O)OCC)n2)cc1 [Compound R926571],
4.08 µM,,Cn1nnc(COc2ccc(Nc3ncc(F)c(Nc4ccc(OCc5nnn(C)n5)cc4)n3)cc2)n1 [Compound R945046],
,> 10 µM,CC(C)(C)c1ccc(Nc2nc(Nc3ccc4c(c3)CC(C(=O)O)O4)ncc2F)cc1 (stereo not drawn) [Compound R926720],
3.1 µM,,CNC(=O)COc1cc(Nc2ncc(F)c(Nc3cccc(O)c3)n2)ccc1OC [Compound R926829],
> 10 µM,,CCOC(=O)C(C)(C)c1ccc(Nc2nc(Nc3ccc(OC(C)C)cc3)ncc2F)cc1 [Compound R935167],
> 10 µM,,CCOC(=O)COc1ccc(Nc2nc(Nc3ccc(OCC(=O)OCC)cc3)c(NC(=O)NC(=O)OCC)c(C(=O)OCC)n2)cc1 [Compound R926586],
> 10 µM,,CCOC(=O)COc1ccc(Nc2ncc(C(F)(F)F)c(Nc3ccc(OCC(=O)OCC)cc3)n2)cc1 [Compound R925862],
> 10 µM,,COC(=O)c1cc2cc(Nc3ncc(F)c(Nc4ccc(OCc5nc(C)no5)cc4)n3)ccc2o1 [Compound R935146],
> 10 µM,,CC(C)Oc1ccc(Nc2ncc(F)c(Nc3ccc4c(cnn4C)c3)n2)cc1 [Compound R935203],
> 10 µM,,COC(=O)COc1ccc(Nc2ncc(F)c(Nc3cccc(C#N)c3)n2)cc1 [Compound R945110],
,> 10 µM,CCc1ccc(Nc2ncc(F)c(Nc3ccc4c(c3)OCCO4)n2)cc1 [Compound R926237],

# The remaining lines, values behind:
SMILES,IC50,"IC50 (Homo sapiens, Jurkat)",also measured
CNC(=O)CNc1cccc(Nc2ncc(F)c(Nc3cccc(O)c3)n2)c1 [Compound R950218],3.43 µM,,
Cc1ccc(Nc2ccnc(Nc3ccc(C)c(N)c3)n2)cc1N [Compound R950130],,> 10 µM,
Nc1cccc(Nc2nc(Nc3cccc(O)c3)ncc2F)c1 [Compound R950163],,24.1 µM,
O=C(O)c1ccc(Nc2ncc(F)c(Nc3ccc(C(=O)O)c(O)c3)n2)cc1O [Compound R945061],,> 10 µM,
CC(=O)Nc1cccc(N(C(C)=O)c2nc(N(C(C)=O)c3cccc(N(C(C)=O)C(C)=O)c3)ncc2F)c1 [Compound R950246],> 10 µM,,
NC(=O)CNc1cccc(Nc2ncc(F)c(Nc3ccc4c(c3)OCCO4)n2)c1 [Compound R950192],1.73 µM,,
COc1ccc(Nc2ncc(F)c(Nc3ccc(OC)c(-c4ccccc4)c3)n2)cc1-c1ccccc1 [Compound R926399],> 10 µM,,
NC(=O)Cn1c(=O)oc2ccc(Nc3ncc(F)c(Nc4ccc5c(c4)OCCO5)n3)cc21 [Compound R926847],11.8 µM,,
Fc1cnc(Nc2ccc(OCc3nc(-c4ccccc4)no3)cc2)nc1Nc1ccc2c(c1)OCCO2 [Compound R935136],> 10 µM,,
Fc1cnc(Nc2ccc3c(c2)OCCO3)nc1Nc1ccc(N2CCN(Cc3ccccc3)CC2)cc1 [Compound R945155],,7.07 µM,
CNC(=O)c1cccc(Nc2ncc(F)c(Nc3ccc4cc[nH]c4c3)n2)c1 [Compound R926933],,2.79 µM,
c1ccc(-c2cnc(Nc3ccc4c(c3)OCCO4)nc2Nc2ccc3c(c2)OCCO3)cc1 [Compound R925784],,> 10 µM,
COC(=O)C=C1C=CC=C(Nc2ncc(F)c(NC3=CC=CC(=CC(=O)OC)C3)n2)C1 [Compound R935114],,> 10 µM,
O=[N+]([O-])c1cc(Nc2ncc(F)c(Nc3ccc(Cl)c([N+](=O)[O-])c3)n2)ccc1Cl [Compound R950149],,,IC50 (Homo sapiens): > 10 µM

# Reference: patent US8158621B2, “Methods of treating or preventing autoimmune diseases with 2,4-pyrimidinediamine compounds” (Rigel Pharmaceuticals, Inc., priority 2002, dated 2012)
